In PubChem BioAssay (NCI):
Values joined by “and” are separate entries in the source; they are usually repeats but may differ in a detail not shown here. Equal values may be shown once.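 96-well plates; 48 h exposure; 5 concentrations. Endpoints by linear interpolation between flanking doses. Not reached: highest tested concentration assigned. The concentration for 50% growth inhibition is given as GI50. The concentration for full growth arrest is given as TGI.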

Key:
Assay in all cases: NCI-60 cell line screen, 48 h
[1] = system: T-47D breast
[2] = system: SF-268 CNS
[3] = system: SW-620 colon
[4] = system: MDA-MB-435
[5] = system: OVCAR-5 ovarian
[6] = system: LOX IMVI melanoma
[7] = system: RPMI-8226 leukemia
[8] = system: HOP-92 NSCLC
[9] = system: SK-MEL-28 melanoma
[10] = system: OVCAR-4 ovarian

Row | SMILES | GI50 [1] | TGI [1] | GI50 [2] | TGI [2] | GI50 [3] | TGI [3] | GI50 [4] | TGI [4] | GI50 [5] | TGI [5] | GI50 [6] | TGI [6] | GI50 [7] | TGI [7] | GI50 [8] | TGI [8] | GI50 [9] | TGI [9] | GI50 [10] | TGI [10]
1 | Cc1cc2oc(=O)cc(OC/C=C3/CCC(=O)O3)c2cc1C | 1.69 µM | 7.5 µM | 6.46 µM | 40.1 µM | 2.78 µM | 11.6 µM | 4.64 µM | 18.5 µM | 8.7 µM | 22.9 µM | 1.82 µM | 4.59 µM | 0.512 µM | 4.01 µM | 1.65 µM | 10.6 µM | 10.6 µM | 24 µM | 2.56 µM | 13.7 µM
2 | O=C(CS(=O)c1nc2ccccc2nc1-c1ccccc1)Nc1ccc(Cl)cc1 (stereo unspecified) | 32.7 µM | > 100 µM | 24.9 µM | 88.2 µM | 26.7 µM | 88.2 µM | 18.1 µM | 41.4 µM | 33.7 µM | > 100 µM | 17.5 µM | 33.6 µM | 20.6 µM | 58.8 µM | 12.3 µM | 49.2 µM | 58.9 µM | > 100 µM | 61.2 µM | > 100 µM
3 | O=c1oc2ccc(I)cc2c(=O)n1-c1ccc(I)cc1F | 0.298 µM | 3.49 µM | 0.511 µM | 7.64 µM | 0.821 µM | 13.1 µM | 0.586 µM | 5.6 µM | 3.93 µM | > 100 µM | 0.532 µM | 4.66 µM | 0.366 µM | 1.99 µM | 0.169 µM | 0.544 µM | 0.358 µM | 1.9 µM | 0.349 µM | 18.4 µM
4 | Cn1c2ccccc2c2c(=O)n(CCCC(=O)NCCc3cnc[nH]3)c3c(-c4ccccc4)nnn3c21 | 10.4 µM | 25.1 µM | 11.7 µM | 31.6 µM | 13 µM | 30.2 µM | 10.2 µM | 20 µM | 10.8 µM | 20.3 µM | 11.2 µM | 22.9 µM | 10.5 µM | 28.6 µM | 1.35 µM | 5.48 µM | 8.86 µM | 16.9 µM | 10.1 µM | 20.5 µM
5 | N#Cc1ccc(C(=O)c2cnn(-c3ccc(F)cc3)c2N)cc1 | > 25 µM | > 25 µM | > 25 µM | > 25 µM | > 25 µM | > 25 µM | > 25 µM | > 25 µM | > 25 µM | > 25 µM | > 25 µM | > 25 µM | > 25 µM | > 25 µM | > 25 µM | > 25 µM | > 25 µM | > 25 µM | > 25 µM | > 25 µM
6 | CC(=O)OCC1OC([S-])C(OC(C)=O)C(OC(C)=O)C1OC(C)=O.[Au+].c1ccc(CN2[CH-]N(Cc3ccccc3)C(c3ccccc3)=C2c2ccccc2)cc1 | 1.72 µM and 0.417 µM | 3.81 µM and 2.75 µM | 2.43 µM and 0.458 µM | 6.11 µM and 1.78 µM | 2.02 µM and 0.779 µM | 4.61 µM and 2.08 µM | 2.94 µM and 0.86 µM | 10.4 µM and 3.36 µM | 3.35 µM and 0.783 µM | 11.9 µM and 3.1 µM | 1.65 µM and 0.563 µM | 3.1 µM and 1.32 µM | – | 5.99 µM and 1.93 µM | – | 3.93 µM and 0.437 µM | 2.33 µM and 0.468 µM | 5.76 µM and 2.29 µM | 3.54 µM and 0.688 µM | 15.3 µM and 5.82 µM
7 | O=C(Nc1cccc(-n2ccc3c(NC(=O)c4ccccc4)nccc32)c1)c1ccc(Cl)c(Cl)c1 | 1.32 µM | 2.85 µM | 0.19 µM | 2.18 µM | 0.106 µM | 1.48 µM | 0.0275 µM | 0.103 µM | 0.476 µM | 1.71 µM | 0.219 µM | 1.57 µM | 0.263 µM | 1.16 µM | 0.13 µM | 2.12 µM | 0.298 µM | 2.06 µM | 0.611 µM | 2 µM
8 | O=C(O)C1C2C=CC(O2)C1C(=O)NCc1ccncc1 (stereo unspecified) | – | > 100 µM | – | > 100 µM | – | > 100 µM | – | > 100 µM | – | > 100 µM | – | > 100 µM | – | > 100 µM | – | > 100 µM | – | > 100 µM | – | > 100 µM
9 | O=c1[nH][nH]c(=O)c2c(O)c(-c3ccccc3)ncc12 | 27.6 µM and 60.5 µM | 95.5 µM and 843 µM | 35 µM and 71.3 µM | > 1000 µM | 45.8 µM and 188 µM | 891 µM | 44.1 µM and 205 µM | > 1000 µM | 60 µM and 160 µM | 832 µM | 38.9 µM and 123 µM | 442 µM | 79.2 µM and 283 µM | 706 µM | 30.4 µM and 50.1 µM | 91.2 µM and 277 µM | 31.9 µM and 40.4 µM | > 1000 µM | 46 µM and 110 µM | 630 µM
10 | O=C(O)CC(S)C(=O)O.[Li+].[Sb] (stereo unspecified) | > 100 µM | > 100 µM | > 100 µM | > 100 µM | > 100 µM | > 100 µM | > 100 µM | > 100 µM | > 100 µM | > 100 µM | 47.1 µM | > 100 µM | 63.3 µM | > 100 µM | > 100 µM | > 100 µM | 55.5 µM | > 100 µM | > 100 µM | > 100 µM
11 | COc1ccc(C2CC(c3ccc4ccccc4c3)=NN2c2nc(O)c(C3=c4cc(Cl)ccc4=NC3=O)s2)cc1 (stereo unspecified) | 0.0223 µM and < 0.005 µM | – | 0.0291 µM and < 0.005 µM | – | 0.0187 µM and < 0.005 µM | 0.0374 µM and < 0.005 µM | 0.0215 µM and < 0.005 µM | 0.0483 µM and < 0.005 µM | 0.0263 µM and < 0.005 µM | – | 0.0223 µM and < 0.005 µM | – | 0.0641 µM | – | 0.0168 µM and < 0.005 µM | – | 0.0258 µM and < 0.005 µM | – | 0.0215 µM | 0.0487 µM
12 | CN(CCCCCCCCNc1ccnc2ccccc12)Cc1ccc(-c2ccc(-c3ccc(C#N)cc3)s2)cc1 | 0.881 µM | 3.16 µM | 1.6 µM | 3.45 µM | 0.178 µM | 0.432 µM | 1.19 µM | 2.5 µM | 1.39 µM | 2.73 µM | 0.164 µM | 0.31 µM | 0.164 µM | 0.571 µM | 0.337 µM | 2.53 µM | 1.65 µM | 3.06 µM | 0.139 µM | 1.99 µM
13 | O=C1c2c(c3c4ccccc4n(CCCCCCN4CCOCC4)c3c3[nH]c4ccccc4c23)C(=O)N1O | 18.7 µM | > 94.6 µM | 15.8 µM | 39.4 µM | 1.68 µM | 3.93 µM | 3.72 µM | 20.1 µM | > 49.3 µM | > 75.8 µM | 0.21 µM | 0.736 µM | 2.57 µM | 7.76 µM | 13.2 µM | 38.3 µM | 1.96 µM | 4.02 µM | 4.44 µM | 20.7 µM
14 | CSc1nc(SC)c2c(C)c(Br)[nH]c2n1 | – | > 100 µM | – | > 100 µM | – | > 100 µM | – | > 100 µM | – | > 100 µM | – | > 100 µM | – | > 100 µM | – | > 100 µM | – | > 100 µM | – | > 100 µM
15 | CCc1nc(N)nc(N)c1-c1ccc(N(C)Cc2ccccc2)c([N+](=O)[O-])c1 | – | 21.4 µM | – | 37.9 µM | – | 26.5 µM | – | 17.9 µM | – | 32.9 µM | – | 22.2 µM | – | 4.13 µM | – | 18.7 µM | – | 17 µM | – | 52.1 µM
16 | Cc1c(C(=O)/C=C/c2ccc(Cl)cc2)nnn1-c1ccnc2c(C(F)(F)F)cccc12 | > 100 µM | > 100 µM | 21.5 µM | > 100 µM | > 100 µM | > 100 µM | > 100 µM | > 100 µM | > 100 µM | > 100 µM | 23.3 µM | > 100 µM | 8.47 µM | > 100 µM | 18.4 µM | 60.6 µM | > 100 µM | > 100 µM | 0.151 µM | 0.966 µM
17 | CN(C)c1ccc(/C=N/n2c(CCCCc3n[nH]c(=S)n3/N=C/c3ccc(N(C)C)cc3)n[nH]c2=S)cc1 | 0.022 µM | 17.3 µM | > 100 µM | > 100 µM | > 100 µM | > 100 µM | > 100 µM | > 100 µM | > 100 µM | > 100 µM | > 100 µM | > 100 µM | > 100 µM | > 100 µM | > 100 µM | > 100 µM | > 100 µM | > 100 µM | > 100 µM | > 100 µM
18 | COC1/C=C/OC2(C)Oc3c(C)c(O)c4c(O)c(c(/C=N/N(c5ccccc5)c5ccccc5)c(O)c4c3C2=O)NC(=O)C(C)=C/C=C/C(C)C(O)C(C)C(O)C(C)C(OC(C)=O)C1C (stereo unspecified) | 1.82 µM | 7.87 µM | 1.93 µM | 8.51 µM | 1.05 µM | 2.6 µM | 1.65 µM | 5.05 µM | 2.07 µM | 10.9 µM | 1.04 µM | 2.41 µM | 1.16 µM | 4.42 µM | 0.867 µM | 2.86 µM | 1.07 µM | 2.43 µM | 1.95 µM | 7.6 µM
